From patent publication US8143068B2, “Oxidation resistant indicator molecules” (Sensors for Medicine and Science, Inc., priority 2006, dated 2012)
Where two headings read alike, the source gives them in different places.

Assays:
[1] = Modulation of fluorescence by varying concentrations of glucose (Example 1, FIG. 1)
Procedure: The modulation of the fluorescence of various molecules (depicted in FIG. 5) by varying concentrations of glucose was determined. […] In a further experiment, the unsubstituted control and two compounds of the present invention (4-trifluoromethyl and 3,4-difluoro) were subjected to oxidation treatment with 1 mM hydrogen peroxide, and the loss of fluorescence intensity was measured.

[2] = Stability of indicator gels towards oxidant: 1 mM hydrogen peroxide in PBS at 37° C.; format: physicochemical; conditions: indicator gel
Procedure: Several compounds of the present invention were each copolymerized with hydroxyethyl methacrylate (HEMA), acrylic acid and ethylene glycol dimethacrylate (EGDMA) to form water insoluble polymer gels, as in Example 3. Their stability towards oxidant was assessed by subjecting the gels to 1 mM hydrogen peroxide in PBS at 37° C. […] In a further experiment, the fluorescent change (% modulation) from 0 to 20 mM glucose of various indicator gels was measured and the results are shown in FIG. 8.

[3] = Fluorescence and glucose response of indicator gels (Table 1); format: binding; conditions: indicator gel; for Kd: 37° C.
[4] = Long term exposure of indicator gels to 10 μM hydrogen peroxide and 4 mM glucose/PBS at 37° C., loss of fluorescence intensity; format: physicochemical; conditions: indicator gel
Procedure: Several gels (produced as in Example 3) containing compounds of the present invention (4-trifluoromethyl, 3,4-difluoro and 4-fluoro) and a control (unsubstituted) were subjected to long term exposure to 10 μM hydrogen peroxide and 4 mM glucose/PBS at 37° C., and the loss of fluorescence intensity was measured.
Two compounds according to the present invention (4-trifluoromethyl and 3,4-difluoro) and the unsubstituted control were each copolymerized with hydroxyethyl methacrylate (HEMA) and acrylic acid, and crosslinked with ethylene glycol dimethacrylate (EGDMA) to form a water insoluble polymer graft, which was then implanted into a rat to be subjected to in vivo oxidation for 22 or 43 days.

[5] = Stability of indicator gels in 1 mM hydrogen peroxide in the presence of 4 mM glucose in PBS at 37° C.; format: physicochemical; conditions: indicator gel
Procedure: Several compounds of the present invention were each copolymerized with hydroxyethyl methacrylate (HEMA), acrylic acid and ethylene glycol dimethacrylate (EGDMA) to form water insoluble polymer gels, as in Example 3. Their stability towards oxidant was assessed by subjecting the gels to 1 mM hydrogen peroxide in PBS at 37° C. In a further experiment, two of the indicator gels (the 4-trifluoromethyl and 4-trifluoromethylsulfone gels) were subjected to 1 mM hydrogen peroxide in the presence of 4 mM glucose in PBS at 37° C. In a further experiment, the fluorescent change (% modulation) from 0 to 20 mM glucose of various indicator gels was measured and the results are shown in FIG. 8.

[6] = aqueous association with glucose; cited from earlier work

| Compound | t 1/2 [2] [min] | further results |
| --- | --- | --- |
| 9-[N-[2-(4,4,5,5,-tetramethyl-1,3,2-dioxaborolano)-3-methylbenzyl]-N-[3-(methacrylamido)propylamino]methyl]-10-[N-[2-(4,4,5,5,-tetramethyl-1,3,2-dioxaborolano)-3-methylbenzyl]-N-[2-(carboxyethyl)amino]methyl]anthracene [Indicator 2-Methyl] |  | modulation of the fluorescence by glucose [1]: did not modulate well |
| 9-[N-[2-(4,4,5,5,-tetramethyl-1,3,2-dioxaborolano)-4-(trifluoromethyl)benzyl]-N-[3-(methacrylamido)propylamino]methyl]-10-[N-[2-(4,4,5,5-tetra-methyl-1,3,2-dioxaborolano)-4-(trifluoromethyl)benzyl]-N-[2-(carboxyethyl)amino]methyl]-anthracene sodium salt [5-Trifluoromethyl] | 24 |  |
| 9-[N-[6-(4,4,5,5,-tetramethyl-1,3,2-dioxaborolano)-2,3-dichlorobenzyl]-N-[3-(methacrylamido)propylamino]methyl]-10-[N-[6-(4,4,5,5,-tetramethyl-1,3,2-dioxaborolano)-2,3-dichlorobenzyl]-N-[2-(carboxyethyl)amino]methyl]anthracene sodium salt [3,4-Dichloro] | 32 |  |
| 9-[N-[6-(4,4,5,5,-tetramethyl-1,3,2-dioxaborolano)-2,3-difluorobenzyl]-N-[3-(methacrylamido)propylamino]methyl]-10-[N-[6-(4,4,5,5,-tetramethyl-1,3,2-dioxaborolano)-2,3-difluorobenzyl]-N-[2-(carboxyethyl)amino]methyl]anthracene sodium salt [3,4-Difluoro] | 13 | AVERAGE % MODULATION (0 to 20 mM glucose) [3]: 137%; Kd [3]: 30.9 mM; HALF LIFE (days) at 37° C. in 4 mM glucose and 10 μM H2O2 [4]: 33 days |
| 9-[N-[6-(4,4,5,5,-tetramethyl-1,3,2-dioxaborolano)-2,4-(dichloro)benzyl]-N-[3-(methacrylamido)propylamino]methyl]-10-[N-[6-(4,4,5,5,-tetramethyl-1,3,2-dioxaborolano)-2,4-(dichloro)benzyl]-N-[2-(carboxyethyl)amino]-methyl]anthracene sodium salt [3,5-Dichloro] | 22 |  |
| 9-[N-[6-(4,4,5,5,-tetramethyl-1,3,2-dioxaborolano)-2,4-bis(trifluoromethyl)benzyl]-N-[3-(methacrylamido)propylamino]methyl]-10-[N-[6-(4,4,5,5,-tetramethyl-1,3,2-dioxaborolano)-2,4-bis(trifluoromethyl)benzyl]-N-[2-(carboxyethyl)amino]-methyl]anthracene sodium salt [3,5-Bis(trifluoromethyl)] | 495 |  |
| 9-[N-[6-(4,4,5,5,-tetramethyl-1,3,2-dioxaborolano)-3-(trifluoromethyl)benzyl]-N-[3-(methacrylamido)propylamino]methyl]-10-[N-[6-(4,4,5,5,-tetramethyl-1,3,2-dioxaborolano)-3-(trifluoromethyl)benzyl]-N-[2-(carboxyethyl)amino]methyl]anthracene sodium salt [4-Trifluoromethyl] | 17 | AVERAGE % MODULATION (0 to 20 mM glucose) [3]: 191%; Kd [3]: 12.2 mM; HALF LIFE (days) at 37° C. in 4 mM glucose and 10 μM H2O2 [4]: 26 days; t 1/2 (minutes), in 4 mM Glucose Solution [5]: 30 min |
| 9-[N-[6-(4,4,5,5,-tetramethyl-1,3,2-dioxaborolano)-3-cyanobenzyl]-N-[3-(methacrylamido)propylamino]methyl]-10-[N-[6-(4,4,5,5,-tetramethyl-1,3,2-dioxaborolano)-3-cyanobenzyl]-N-[2-(carboxyethyl)amino]methyl]anthracene sodium salt [Indicator 4-Cyano] | 18 |  |
| 9-[N-[6-(4,4,5,5,-tetramethyl-1,3,2-dioxaborolano)-3-fluorobenzyl]-N-[3-(methacrylamido)propylamino]methyl]-10-[N-[6-(4,4,5,5,-tetramethyl-1,3,2-dioxaborolano)-3-fluorobenzyl]-N-[2-(carboxyethyl)amino]methyl]anthracene sodium salt [Indicator 4-Fluoro] | 13 |  |
| C=C(C)C(=O)NCCCN(Cc1cc(OC(F)(F)F)ccc1B1OC(C)(C)C(C)(C)O1)Cc1c2ccccc2c(CN(CCC(=O)[O-])Cc2cc(OC(F)(F)F)ccc2B2OC(C)(C)C(C)(C)O2)c2ccccc12.[Na+] [4-Trifluoromethoxy, 9-[N-[6-(4,4,5,5,-tetramethyl-1,3,2-dioxaborolano)-3-(trifluoromethoxy)benzyl]-N-[3-(methacrylamido)propylamino]methyl]-10-[N-[6-(4,4,5,5-tetra-methyl-1,3,2-dioxaborolano)-3-(trifluoromethoxy)benzyl]-N-[2-(carboxyethyl)amino]methyl]-anthracene sodium salt] | 24 |  |
| C=C(C)C(=O)NCCCN(Cc1cc([N+](=O)[O-])ccc1B1OC(C)(C)C(C)(C)O1)Cc1c2ccccc2c(CN(CCC(=O)[O-])Cc2cc([N+](=O)[O-])ccc2B2OC(C)(C)C(C)(C)O2)c2ccccc12.[Na+] [Indicator 4-Nitro, 9-[N-[6-(4,4,5,5,-tetramethyl-1,3,2-dioxaborolano)-3-nitrobenzyl]-N-[3-(methacrylamido)propylamino]methyl]-10-[N-[6-(4,4,5,5,-tetramethyl-1,3,2-dioxaborolano)-3-nitrobenzyl]-N-[2-(carboxyethyl)amino]methyl]anthracene sodium salt] |  | modulation of the fluorescence by glucose [1]: did not modulate well |
| C=C(C)C(=O)NCCCN(Cc1ccc(F)cc1B1OC(C)(C)C(C)(C)O1)Cc1c2ccccc2c(CN(CCC(=O)[O-])Cc2ccc(F)cc2B2OC(C)(C)C(C)(C)O2)c2ccccc12.[Na+] [Indicator 5-Fluoro, 9-[N-[2-(4,4,5,5,-tetramethyl-1,3,2-dioxaborolano)-4-fluorobenzyl]-N-[3-(methacrylamido)propylamino]methyl]-10-[N-[2-(4,4,5,5,-tetramethyl-1,3,2-dioxaborolano)-4-fluorobenzyl]-N-[2-(carboxyethyl)amino]methyl]anthracene sodium salt] | 6 |  |
| OB(O)c1ccccc1 [phenylboronic acid] |  | Kd [6]: 9.1 mM |
